Laboratory results published in the supplement of paper PMC9938120.

Legend:
Assay in all cases: drug sensitivity score (DSS3, normalised partial AUC of % inhibition dose-response) (DSS (score)); higher = more sensitive (stronger inhibition of viability); extreme values may be limits of the assay
FMOC06 = patient-derived mucinous ovarian cancer cells; conditions: 72 h; library: FO5A; assay format: 2D, 384-well, CellTiter-Glo
How it was run: (§1)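 The drug sensitivity score is calculated as a partial area under the percent-inhibition dose-response curve, divided by the log of the upper asymptote; higher scores mean more sensitive. For this score, early-passage (under 10) patient-derived ovarian cancer cells were exposed on 384-well flat clear-bottom plates to compounds at five concentrations across a 10,000-fold range for 72 h at 37 °C, 5% CO2. Viability was read with CellTiter-Glo and processed in Breeze.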

FMOC11 = patient-derived high-grade serous ovarian cancer cells; conditions: 72 h; library: FO5A; assay format: 2D, 384-well, CellTiter-Glo
How it was run: as §1

FMOC24 = patient-derived high-grade serous ovarian cancer cells; conditions: 72 h; library: FO5A; assay format: 2D, 384-well, CellTiter-Glo
How it was run: as §1

FMOC17 = patient-derived low-grade serous ovarian cancer cells; conditions: 72 h; library: FO5A; assay format: 2D, 384-well, CellTiter-Glo
How it was run: as §1

FMOC27 = patient-derived low-grade serous ovarian cancer cells; conditions: 72 h; library: FO5A; assay format: 2D, 384-well, CellTiter-Glo
How it was run: as §1

FMOC02_3 = patient-derived low-grade serous ovarian cancer cells; conditions: 72 h; library: FO5A; assay format: 2D, 384-well, CellTiter-Glo
How it was run: as §1

FMOC28 = patient-derived low-grade serous ovarian cancer cells; conditions: 72 h; library: FO5A; assay format: 2D, 384-well, CellTiter-Glo
How it was run: as §1

FMOC25_2 = patient-derived low-grade serous ovarian cancer cells; conditions: 72 h; library: FO5A; assay format: 2D, 384-well, CellTiter-Glo
How it was run: as §1

FMOC22 = patient-derived mucinous ovarian cancer cells; conditions: 72 h; library: FO5A; assay format: 2D, 384-well, CellTiter-Glo
How it was run: as §1

FMOC03 = patient-derived mucinous ovarian cancer cells; conditions: 72 h; library: FO5A; assay format: 2D, 384-well, CellTiter-Glo
How it was run: as §1

FMOC25_1 = patient-derived low-grade serous ovarian cancer cells; conditions: 72 h; library: FO4B; assay format: 2D, 384-well, CellTiter-Glo
How it was run: as §1

FMOC02_1 = patient-derived low-grade serous ovarian cancer cells; conditions: 72 h; library: FO5A; assay format: 2D, 384-well, CellTiter-Glo
How it was run: as §1

FMOC04 = patient-derived high-grade serous ovarian cancer cells; conditions: 72 h; library: FO5A; assay format: 2D, 384-well, CellTiter-Glo
How it was run: as §1

FMOC02_2 = patient-derived low-grade serous ovarian cancer cells; conditions: 72 h; library: FO5A; assay format: 2D, 384-well, CellTiter-Glo
How it was run: as §1

FMOC09 = patient-derived high-grade serous ovarian cancer cells; conditions: 72 h; library: FO5A; assay format: 2D, 384-well, CellTiter-Glo
How it was run: as §1

FMOC14 = patient-derived high-grade serous ovarian cancer cells; conditions: 72 h; library: FO5A; assay format: 2D, 384-well, CellTiter-Glo
How it was run: as §1

| SMILES | drug sensitivity score (FMOC06) | drug sensitivity score (FMOC11) | drug sensitivity score (FMOC24) | drug sensitivity score (FMOC17) | drug sensitivity score (FMOC27) | drug sensitivity score (FMOC02_3) | drug sensitivity score (FMOC28) | drug sensitivity score (FMOC25_2) | drug sensitivity score (FMOC22) | drug sensitivity score (FMOC03) | drug sensitivity score (FMOC25_1) | drug sensitivity score (FMOC02_1) | drug sensitivity score (FMOC04) | drug sensitivity score (FMOC02_2) | drug sensitivity score (FMOC09) | drug sensitivity score (FMOC14) |
| --- | --- | --- | --- | --- | --- | --- | --- | --- | --- | --- | --- | --- | --- | --- | --- | --- |
| C[C@H]1Oc2cc(cnc2N)-c2c(nn(C)c2C#N)CN(C)C(=O)c2ccc(F)cc21 | 3.4 | 0 | 1.6 | 0 | 0 | 3.1 | 0 | 1.6 | 0 | 0 | 0 | 0.8 | 0 | 3.2 | 1.6 | 0 |
| Cc1c(C(=O)Nc2ccc(N3C[C@@H](C)O[C@@H](C)C3)nc2)cccc1-c1ccc(OC(F)(F)F)cc1 [Sonidegib] | 0 | 0.4 | 2.45 | 3 | 0 | 1.3 | 2.1 | 0 | 0 | 0 | 0 | 2.1 | 0 | 0.1 | 0.1 | 0 |
| COc1nc(N)nc2c1ncn2[C@@H]1O[C@H](CO)[C@@H](O)[C@@H]1O [Nelarabine] | 1.7 | 0 | 1.75 | 0 | 0 | 0 | 0 | 0 | 0 | 0 | 0 | 0 | 0 | 0 | 0 | 0 |
| Cc1cccc(CC(=O)N2CCc3c2ccc(-c2cn(C)c4ncnc(N)c24)c3F)n1 | 0 | 0 | 0 | 0 | 0 | 0 | 0 | 1.6 | 0.2 | 0 | 0.2 | 0 | 0 | 0 | 0 | 0 |
| Nc1nccc(-c2c(-c3ccc(F)cc3)ncn2C2CCCCC2)n1 | 0.1 | 2.5 | 0.85 | 1.6 | 1 | 1.1 | 6.9 | 1.8 | 0.4 | 1.6 | 1.7 | 4.9 | 0.05 | 3.4 | 0 | 0.2 |
| CS(=O)(=O)c1ccc(C(=O)Nc2ccc(Cl)c(-c3ccccn3)c2)c(Cl)c1 [Vismodegib] | 0.3 | 0 | 1.95 | 0 | 0.8 | 0 | 0 | 0 | 0 | 0.6 | 0 | 0 | 0 | 0.4 | 0 | 0 |
| COc1cc2ncnc(Oc3cccc(NC(=O)Nc4cc(C(C)(C)C(F)(F)F)on4)c3)c2cc1OC | 0.3 | 3.3 | 0 | 0 | 0 | 4.4 | 0 | 1.1 | 0 | 0 | 0 | 4 | 0 | 6.6 | 1.3 | 0.3 |
| S=C(NCc1ccc2c(c1)OCO2)N1CCN(c2ncnc3c2oc2ccccc23)CC1 [Amuvatinib] | 0.8 | 0.7 | 0 | 0.3 | 0 | 0 | 0 | 0 | 2.2 | 2.6 | 0 | 0.4 | 0.3 | 0 | 0 | 2 |
| Cc1ccc(-c2cc(C(F)(F)F)nn2-c2ccc(S(N)(=O)=O)cc2)cc1 [Celecoxib] | 0 | 0 | 0 | 0 | 0 | 0 | 0.3 | 0 | 0 | 0 | 0 | 0 | 0 | 0 | 0 | 0 |
| Cc1c(Cn2c(C)nc3c(C(=O)O)cc(N4CCOCC4)cc32)cccc1C(F)(F)F | 0.6 | 0 | 3 | 0 | 0.1 | 2.2 | 7.2 | 11.4 | 0 | 0.5 | 3.5 | 0 | 0.65 | 6.3 | 0 | 2.5 |
| Clc1ccccc1C(c1ccccc1)(c1ccccc1)n1cccn1 [TRAM-34] | 0 | 0 | 0 | 0 | 0 | 0 | 1.5 | 0 | 0 | 0 | 0 | 0 | 0 | 0 | 0 | 0 |
| CNc1nc(-c2ccc3c(N)n[nH]c3c2)cc(N2C[C@@H](C(=O)NC3CCCCC3)CC[C@H]2C)n1 | 4.2 | 0 | 0 | 0 | 1.4 | 0.8 | 6 | 5.7 | 0 | 0 | 6.9 | 3.8 | 0.5 | 8.7 | 0 | 0.6 |
